test system: tumor endothelial cells (CT26.CL25 colon cancer tumor); test: Colon CT26 ex vivo model of tumor angiogenesis; format: cell-based; settings: Mus musculus, CT26, 48 h, read-out: Cell death
Experimental: This example describes a procedure to prepare a primary tumor angiogenesis model for assessing the efficacy of anti-cancer candidate agents.
1. The day before the experiment, spray all necessary tools with 70% ethanol and sterilize them under UV light overnight, including blade, dissecting and micro-dissecting scissors and […]. Place 24-well dishes at 4° C. to pre-chill plates and thaw Matrigel 24 hours before tumor dissection.
2. Spray 70% ethanol on working bench. Prepare two sterile petri dishes with 10 mL sterile PBS. Steps 3 and 4 are for mouse tumor models. For fresh human tumor, directly go to step 5.
3. Euthanize the tumor-bearing mice. Spray 70% ethanol on the mouse and remove the tumor using sterilized dissecting tools (avoid the fur). Rinse the tumor in petri dish with sterile PBS to remove ethanol and fur. Transfer the tumor to a new petri dish with PBS for dissection. Place the dish on ice.
4. Using pre-chilled sterile pipet tips to seed regular Matrigel in 24 well plates on ice. Matrigel (30 μL) is dropped in the middle of each well without touching the edge of the well (avoid introducing bubbles if possible).
5. Cut the tumor in halves using the sterile blade. Identify and isolate healthy tumor tissue that is not necrotic and is within the tumor capsule. Cut the healthy tumor tissue into small pieces. For instance, a suitable size for the tumor tissue is 0.5 mm (H)×0.5 mm (L)×0.3 mm (D) with a total volume of 0.075 mm^3.
6. Gently transfer and embed each tumor piece in the Matrigel drop in the 24-well plate. Place the embedded piece in the bottom and middle of each Matrigel drop. Keep the plate on ice all the time.
7. After seeding the tumor pieces, plates are incubated in a 37° C. cell culture incubator without medium for 10 minutes in order for the Matrigel to solidify.
8. Endothelial Growth Medium (0.5 mL) is added to each well and incubated at 37° C. with 5% CO2. Wait until the new endothelial cells have grown out of the tumor or are larger than 3 mm in diameter until treatment. This usually takes 4 days for the LL2 Lewis lung cancer model and 7 days for the CT26 colon cancer model. For human tumor models, the growth time is typically 2-3 weeks, depending on the tumor type. Media is changed every 4 days during prolonged culture. Typically, when the tumor tissue grows to 2 mm in diameter, it is good for drug testing. A size of about 3 mm in diameter can make visualization easier.
9. When the assay is ready to be analyzed for cell death (e.g., 48 hours after drug addition), prepare the dye mixture by mixing 6 μL of green dye to stain live cells (5 mg/mL Fluorescein diacetate or FDA in DMSO) with 30 μL of red dye (2.5 mg/mL Propidium iodide or PI in PBS) to stain dead cells in an Eppendorf tube. The FDA dye needs to be stored frozen in a −20° C. freezer because it has a labile ester bond.
10. Add 1 μL of the dye mixture to each well of the 24-well dish. It is usually performed one 24-well dish at a time given the amount of time needed to take pictures (the green dye is not as stable in the cells in the long term).
11. Gently rock the dish a few times to mix the dye with the media in the wells and incubate the dish at 37° C. for 10 min (too long incubation can make the green signal too intense).
12. Wash each well with 0.5 mL of sterile PBS and then add 0.5 mL of phenol red free SFM to each well. Alternatively 0.5 mL of regular Endothelial Cell Growth Media can be added to each well if this well needs to be continuously maintained after the experiment.
13. Look through all wells on an inverted microscope using the 2× objective lens to observe morphological changes.
14. Taking pictures in the red and green channels would allow not only the recording of the result but also more accurate quantitation of the result. To take pictures for all the wells, first pick a well that has robust red and green signals. […]

Row | SMILES | cytotoxicity at 40 µM [%]
1 | CCCCOc1ccc2ncc(S(=O)(=O)c3ccc(OC)c(OC)c3)c(N(CC)CC)c2c1 [compound 123, 6-butoxy-3-((3,4-dimethoxyphenyl)sulfonyl)-N,N-diethylquinolin-4-amine] | 20
2 | CCOC(=O)c1ccc2ncc(S(=O)(=O)c3ccc(CC)cc3)c(N3CCC(OCCN(CC)CC)CC3)c2c1 [compound 132, ethyl 4-(4-(2-(diethylamino)ethoxy)piperidin-1-yl)-3-((4-ethylphenyl)sulfonyl)quinoline-6-carboxylate] | 40
3 | CCc1ccc(C2(O)CCN(c3c(S(=O)(=O)c4ccc(OC)cc4)cnc4ccc(OC(F)(F)F)cc34)CC2)cc1 [compound 129, 4-(4-ethylphenyl)-1-(3-((4-methoxyphenyl)sulfonyl)-6-(trifluoromethoxy)quinolin-4-yl)piperidin-4-ol] | 0
4 | CCOC(=O)c1ccc2ncc(S(=O)(=O)c3ccc(CC)cc3)c(N3CCC(O)(c4ccc(CC)cc4)CC3)c2c1 [compound 128, ethyl 4-(4-(4-ethylphenyl)-4-hydroxypiperidin-1-yl)-3-((4-ethylphenyl)sulfonyl)quinoline-6-carboxylate] | 10
5 | CCc1ccc(S(=O)(=O)c2cnc3ccc(OC(F)(F)F)cc3c2N2CCC(O)(c3ccc(OC)cc3)CC2)cc1 [compound 145, 1-(3-((4-ethylphenyl)sulfonyl)-6-(trifluoromethoxy)quinolin-4-yl)-4-(4-methoxyphenyl)piperidin-4-ol] | 30
6 | CCOC(=O)c1ccc2ncc(S(=O)(=O)c3ccc(CC)cc3)c(N3CCC(N4CCC(O)CC4)CC3)c2c1 [compound 130, ethyl 3-((4-ethylphenyl)sulfonyl)-4-(4-hydroxy-[1,4′-bipiperidin]-1′-yl)quinoline-6-carboxylate] | 40
7 | CCc1ccc(S(=O)(=O)c2cnc3ccc(OC(F)(F)F)cc3c2N2CCC(O)(c3ccc4c(c3)OCO4)CC2)cc1 [compound 147, 4-(benzo[d][1,3]dioxol-5-yl)-1-(3-((4-ethylphenyl)sulfonyl)-6-(trifluoromethoxy)quinolin-4-yl)piperidin-4-ol] | 0
8 | CN1CCCN(c2c(S(=O)(=O)c3ccc([N+](=O)[O-])cc3)cnc3ccc(OC(F)(F)F)cc23)CC1 [compound 60, 4-(4-methyl-1,4-diazepan-1-yl)-3-((4-nitrophenyl)sulfonyl)-6-(trifluoromethoxy)quinoline] | 5
9 | CCOC(=O)c1ccc2ncc(S(=O)(=O)c3ccc(OC)cc3)c(N3CCC(N4CCCCC4)CC3)c2c1 [compound 136, ethyl 4-([1,4′-bipiperidin]-1′-yl)-3-((4-methoxyphenyl)sulfonyl)quinoline-6-carboxylate] | 30
10 | COc1ccc(S(=O)(=O)c2cnc3ccc(SC)cc3c2N2CCC(N3CCC(O)CC3)CC2)cc1OC [compound 153, 1′-(3-((3,4-dimethoxyphenyl)sulfonyl)-6-(methylthio)quinolin-4-yl)-[1,4′-bipiperidin]-4-ol] | 20
11 | CCCCN(CCCC)c1c(S(=O)(=O)c2ccc(OC)c(OC)c2)cnc2ccc(SC)cc12 [compound 124, N,N-dibutyl-3-((3,4-dimethoxyphenyl)sulfonyl)-6-(methylthio)quinolin-4-amine] | 20
12 | CCOC(=O)c1ccc2ncc(S(=O)(=O)c3ccc(OC)cc3)c(N3CCCC(O)C3)c2c1 (stereo not shown) [compound 137, ethyl 4-(3-hydroxypiperidin-1-yl)-3-((4-methoxyphenyl)sulfonyl)quinoline-6-carboxylate] | 40
13 | CCOC(=O)c1ccc2ncc(S(=O)(=O)c3ccc(OC)cc3)c(N3CCCN(C)CC3)c2c1 [compound 144, ethyl 3-((4-methoxyphenyl)sulfonyl)-4-(4-methyl-1,4-diazepan-1-yl)quinoline-6-carboxylate] | 30
14 | CCOC(=O)c1ccc2ncc(S(=O)(=O)c3ccc(OC)cc3)c(N3CCC(OCCN(CC)CC)CC3)c2c1 [compound 140, ethyl 4-(4-(2-(diethylamino)ethoxy)piperidin-1-yl)-3-((4-methoxyphenyl)sulfonyl)quinoline-6-carboxylate] | 60
15 | CCCCOc1ccc(S(=O)(=O)c2cnc3ccc(SC)cc3c2N2CCCN(CCN3CCCC3)CC2)cc1 [compound 207, 3-((4-butoxyphenyl)sulfonyl)-6-(methylthio)-4-(4-(2-(pyrrolidin-1-yl)ethyl)-1,4-diazepan-1-yl)quinoline] | 100
16 | CCOC(=O)c1ccc2ncc(S(=O)(=O)c3ccc(CC)cc3)c(N3CCCC(O)C3)c2c1 (stereo not shown) [compound 135, ethyl 3-((4-ethylphenyl)sulfonyl)-4-(3-hydroxypiperidin-1-yl)quinoline-6-carboxylate] | 30
17 | CCc1ccc(S(=O)(=O)c2cnc3ccc(OC(F)(F)F)cc3c2N2CCC(O)(c3cccc(OC)c3)CC2)cc1 [compound 146, 1-(3-((4-ethylphenyl)sulfonyl)-6-(trifluoromethoxy)quinolin-4-yl)-4-(3-methoxyphenyl)piperidin-4-ol] | 0

test system: tumor endothelial cells (LL/2 lung cancer tumor); test: Lung LL2 ex vivo model of tumor angiogenesis; format: cell-based, mouse; settings: Lung LL2 ex vivo; Conc. 20 μm; drug treatment two days
Outline: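 Read-out is live/dead fluorescence imaging (fluorescein diacetate green, propidium iodide red, 10 min at 37° C) at 2×, taken e.g. 48 h after drug addition. Fragments of mouse LL2 tumor are cultured in Matrigel with endothelial growth medium, usually 4 days, until new endothelial cells grow out, then treated.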

Row | SMILES | Cell death [%]
18 | CCc1ccc(S(=O)(=O)c2cnc3ccc(OC(F)(F)F)cc3c2-n2cnnn2)cc1 [compound 125, 3-((4-ethylphenyl)sulfonyl)-4-(1H-tetrazol-1-yl)-6-(trifluoromethoxy)quinoline] | 10

same assay, conditions: Mus musculus, Endothelial cell, 48 h, read-out: Cell death

Row | SMILES | cytotoxicity at 40 µM [%] | cytotoxicity at 20 µM [%] | cytotoxicity at 10 µM [%]
19 | COc1ccc(S(=O)(=O)c2cnc3cc(OC)c(OC)cc3c2N2CCC(N3CCCC3CO)CC2)cc1 (stereo not shown) [compound 322, (1-(1-(6,7-dimethoxy-3-((4-methoxyphenyl)sulfonyl)quinolin-4-yl)piperidin-4-yl)pyrrolidin-2-yl)methanol] | 30 | – | –
20 | CCCCCCCCCCCCCCCCOc1ccc(S(=O)(=O)c2cnc3ccc([S+](C)[O-])cc3c2N2CCC(N3CCN(CCO)CC3)CC2)cc1 (stereo not shown) [compound 376, 2-(4-(1-(3-((4-(hexadecyloxy)phenyl)sulfonyl)-6-(methylsulfinyl)quinolin-4-yl)piperidin-4-yl)piperazin-1-yl)ethanol] | – | 10 | –
21 | CCCCOc1ccc(S(=O)(=O)c2cnc3ccc(C(=O)OCC)cc3c2-n2cnnn2)cc1 [compound 186, ethyl 3-((4-butoxyphenyl)sulfonyl)-4-(1H-tetrazol-1-yl)quinoline-6-carboxylate] | – | – | 90
22 | CCCCOc1ccc(S(=O)(=O)c2cnc3ccc([S+](C)[O-])cc3c2N2CCC(N3CCN(CCO)CC3)CC2)cc1 (stereo not shown) [compound 236, 2-(4-(1-(3-((4-butoxyphenyl)sulfonyl)-6-(methylsulfinyl)quinolin-4-yl)piperidin-4-yl)piperazin-1-yl)ethan-1-ol] | 5 | – | –
23 | CCCCCCCOc1ccc(S(=O)(=O)c2cnc3ccc(SC)cc3c2N2CCN(CCN3CCCC3)CC2)cc1 [compound 272, 3-((4-(heptyloxy)phenyl)sulfonyl)-6-(methylthio)-4-(4-(2-(pyrrolidin-1-yl)ethyl)piperazin-1-yl)quinoline] | – | 20 | –
24 | CCCCOc1ccc(S(=O)(=O)c2cnc3ccc(C(=O)OCC)cc3c2N2CCC(N3CCCCCC3)CC2)cc1 [compound 176, ethyl 4-(4-(azepan-1-yl)piperidin-1-yl)-3-((4-butoxyphenyl)sulfonyl)quinoline-6-carboxylate] | 100 | – | –
25 | CCCCCCCCCCCCOc1ccc(S(=O)(=O)c2cnc3ccc([S+](C)[O-])cc3c2N2CCC(N3CCC(N4CCN(CCO)CC4)CC3)CC2)cc1 (stereo not shown) [compound 340, 2-(4-(1′-(3-((4-(dodecyloxy)phenyl)sulfonyl)-6-(methylsulfinyl)quinolin-4-yl)-[1,4′-bipiperidin]-4-yl)piperazin-1-yl)ethan-1-ol] | – | 60 | –

Reference: patent US11884647B2, “Compounds and methods for targeting pathogenic blood vessels” (THE REGENTS OF THE UNIVERSITY OF CALIFORNIA, priority 2019, dated 2024)
